Test [1] has as its target human ERK-2 (Mitogen Activated Kinase 1) (Homo sapiens (Human), UniProt P28482). Description: ERK-2 Enzymatic Assay. Format: biochemical. The procedure: Compounds were tested in an enzymatic assay using human ERK-2 (Mitogen Activated Kinase 1), recombinantly expressed as an n-terminal 6-His fusion protein in E. coli and corresponding to a 8-360. The substrate used was the fluorescent Omnia peptide S/T17 (Invitrogen of Carlsbad, Calif.; Cat. KNZ1171C). Test compounds were diluted in DMSO in 3-fold serial dilutions at 100× final concentrations. […] The assay was run at ambient temperature in a white 384-well polypropylene plate (Nunc, Inc of Naperville, Ill.; Cat. 267462) collecting data every 50 seconds for approximately 30 minutes on an Envision plate reader (PerkinElmer, Inc. of Waltham, Mass.); Excitation 340 nm/Emission 495 nm. The data collected from each well was fit to a straight line, and the resulting rates were used to calculate percent of control. Percent of control was plotted against compound concentration, and IC50 values were determined using a four-parameter fit. Representative data is in TABLE 3 (infra).

Test [2] has as its system PMA-stimulated P90RSK(Ser380) phosphorylation in HepG2 cells. Briefly: Cellular P90RSK(Ser380) Phosphorylation Assay. Particulars: Homo sapiens, 1.5 hour compound incubation, PMA 100 ng/mL. Format: cell-based. As for the experimental part:
Cellular P90RSK(Ser380) Phosphorylation Assay
Inhibition of PMA-stimulated P90RSK(Ser380) phosphorylation was determined by the following in vitro cellular mechanistic assay, which comprises incubating cells with a compound for 1.5 hours and quantifying fluorescent pP90RSK(Ser380) signal on fixed cells and normalizing to GAPDH signal.
Materials and Methods: HepG2 cells were obtained from ATCC and grown in DMEM supplemented with 10% fetal bovine serum. Cells were plated in 96-well plates at 35,000 cells/well and allowed to attach overnight at 37° C./5% CO2. Diluted compounds were then added at a final concentration of 0.5% DMSO. After 1.5 hour compound incubation, cells were stimulated with the addition of PMA (phorbol 12-myristate 13-acetate) at a final concentration of 100 ng/mL; the PMA stimulation was a 30-minute incubation at 37° C./5% CO2. After the 30-minute PMA stimulation, cells were washed with PBS and fixed in 3.7% formaldehyde in PBS at room temperature for 15-20 minutes. This was followed by another wash in PBS and then permeabilization in 100% MeOH at room temperature for 10-15 minutes. Following the permeabilization incubation, cells were washed in PBS/0.05% Tween-20, followed by a block in Odyssey blocking buffer (LI-COR Biosciences) for at least 1 hour. […] Both secondary antibodies were used at a 1:1000 dilution. Cells were then washed and analyzed for fluorescence at both wavelengths using the Odyssey Infrared Imaging System (LI-COR Biosciences). Phosphorylated P90RSK(Ser380) signal was normalized to GAPDH signal.

The mark [3] stands for this setting: 25 uM ATP, Omnia peptide S/T17, read-out: Erk Enzymatic Assay IC50.

SMILES strings stand for the structures. Read-outs that look alike come from different tables or passages of the source.

Sequence of human ERK-2 (Mitogen Activated Kinase 1) (P28482 8-360): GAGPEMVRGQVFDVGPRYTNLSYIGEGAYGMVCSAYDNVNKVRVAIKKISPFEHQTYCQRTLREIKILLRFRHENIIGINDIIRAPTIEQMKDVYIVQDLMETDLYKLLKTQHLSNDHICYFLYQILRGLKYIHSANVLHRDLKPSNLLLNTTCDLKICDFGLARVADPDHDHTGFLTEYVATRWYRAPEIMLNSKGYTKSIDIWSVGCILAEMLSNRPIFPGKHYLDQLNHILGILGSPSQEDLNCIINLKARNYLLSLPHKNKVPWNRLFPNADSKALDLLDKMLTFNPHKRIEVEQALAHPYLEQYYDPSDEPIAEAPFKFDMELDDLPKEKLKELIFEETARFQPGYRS

With `COc1ccc([C@H](NC(=O)c2ccc3cnc(N[C@H]4CCOC4)cc3n2)c2cnn(C)c2)cc1F` (single isomer, unassigned) [I-52], the IC50 in test [1] (read-out: ERK IC50) turned out to be 1.27 nM. The same measure, in the same setting: under `COc1ccc([C@H](NC(=O)c2ccc3cnc(N[C@@H]4CCOC4)cc3n2)c2cnn(C)c2)cc1F` (single isomer, unassigned) [I-53] stands 2.75 nM. `O=C(N[C@H](CO)c1ccc(Cl)c(F)c1)c1ccc2cnc(NC3CCOCC3)cc2n1` [I-5, 7-(Tetrahydro-pyran-4-ylamino)-[1,6]naphthyridine-2-carboxylic acid [(S)-1-(4-chloro-3-fluoro-phenyl)-2-hydroxy-ethyl]-amide]: the IC50 in test [1] (setting [3]) was 4.04 nM; in test [2], 16.3 nM. The matching figures for `CC[C@@H](NC(=O)c1ccc2cnc(NC3CCOCC3)cc2n1)c1ccc(OC)c(F)c1` [I-6, 7-(Tetrahydro-pyran-4-ylamino)-[1,6]naphthyridine-2-carboxylic acid [(R)-1-(3-fluoro-4-methoxy-phenyl)-propyl]-amide]: 2.1 nM and 5.96 nM. `Cn1nccc1Nc1cc2nc(C(=O)N[C@H](CO)c3ccc(Cl)c(F)c3)ccc2cn1` [I-8, 7-(2-Methyl-2H-pyrazol-3-ylamino)-[1,6]naphthyridine-2-carboxylic acid [(S)-1-(4-chloro-3-fluoro-phenyl)-2-hydroxy-ethyl]-amide] yielded an IC50 in test [2] of 9.84 nM. With `O=C(NCc1ccc(Cl)c(F)c1)c1ccc2cnc(NC3CCOCC3)cc2n1` [I-11, 7-(Tetrahydro-pyran-4-ylamino)-[1,6]naphthyridine-2-carboxylic acid 4-chloro-3-fluoro-benzylamide], the results for the IC50 in test [1] (setting [3]) and in test [2] were 3.43 nM and 98.9 nM, respectively. The corresponding values for `COc1ccc([C@H](NC(=O)c2ccc3cnc(NC4CCOCC4)cc3n2)c2cnn(C)c2)cc1F` [I-21, (S)—N-((3-Fluoro-4-methoxyphenyl)(1-methyl-1H-pyrazol-4-yl)methyl)-7-(tetrahydro-2H-pyran-4-ylamino)-1,6-naphthyridine-2-carboxamide] are 1.86 nM and 18.7 nM. Regarding `COc1ccc([C@H](NC(=O)c2ccc3cnc(N[C@@H](C)CO)cc3n2)c2cnn(C)c2)cc1F` [I-24, N—((S)-(3-Fluoro-4-methoxyphenyl)(1-methyl-1H-pyrazol-4-yl)methyl)-7-((S)-1-hydroxypropan-2-ylamino)-1,6-naphthyridine-2-carboxamide], the IC50 in test [1] (setting [3]) was found to be 1.15 nM; in test [2], 37.8 nM. The corresponding values for `O=C(NCCc1ccccc1)c1ccc2cnc(NC3CCOCC3)cc2n1` [I-30, 7-(Tetrahydro-pyran-4-ylamino)-[1,6]naphthyridine-2-carboxylic acid phenethyl-amide] are 5.95 nM and 476 nM. The corresponding values for `CC[C@@H](NC(=O)c1ccc2cnc(NC3CCOCC3)cc2c1)c1ccc(Cl)c(F)c1` [II-2, 3-(Tetrahydro-pyran-4-ylamino)-isoquinoline-6-carboxylic acid [(R)-1-(4-chloro-3-fluoro-phenyl)-propyl]-amide] are 2.5 nM and 8.5 nM. The matching figures for `O=C(N[C@H](CO)c1ccc(Cl)c(F)c1)c1ccc2cnc(NC3CCOCC3)cc2c1` [II-12, 3-(Tetrahydro-pyran-4-ylamino)-isoquinoline-6-carboxylic acid [(S)-1-(4-chloro-3-fluoro-phenyl)-2-hydroxy-ethyl]-amide]: 2.8 nM and 14.8 nM.

For the compound `Cn1cc([C@@H](NC(=O)c2ccc3cnc(Nc4ccnn4C)cc3c2)c2ccc(Cl)c(F)c2)cn1` [II-15, (S)—N-((4-Chloro-3-fluorophenyl)(1-methyl-1H-pyrazol-4-yl)methyl)-3-(1-methyl-1H-pyrazol-5-ylamino)isoquinoline-6-carboxamide], the values for the IC50 in test [1] (setting [3]) and in test [2] were 2.29 nM and 9.97 nM, respectively. The matching figures for `C[C@@H](CO)Nc1cc2cc(C(=O)NCc3cc4c(F)cccc4[nH]3)ccc2cn1` [II-23, 3-((S)-2-Hydroxy-1-methyl-ethylamino)-isoquinoline-6-carboxylic acid (4-fluoro-1H-indol-2-ylmethyl)-amide]: 20.2 nM and 65.1 nM.

For `COc1ccc([C@H](NC(=O)c2ccc3cnc(Nc4cc(C)nn4C)cc3c2)c2cnn(C)c2)cc1F` [II-37, (S)-3-(1,3-Dimethyl-1H-pyrazol-5-ylamino)-N-((3-fluoro-4-methoxyphenyl)(1-methyl-1H-pyrazol-4-yl)methyl)isoquinoline-6-carboxamide], the IC50 is 4.6 nM in test [1] (setting [3]) and 30.4 nM in test [2]. `CC[C@@H](NC(=O)c1ccc2cnc(Nc3cc(C)nn3C)cc2c1)c1ccc(Cl)c(F)c1` [II-46, (R)—N-(1-(4-Chloro-3-fluorophenyl)propyl)-3-(1,3-dimethyl-1H-pyrazol-5-ylamino)isoquinoline-6-carboxamide]: the IC50 in test [1] (setting [3]) was determined as 6.5 nM; in test [2], 15.7 nM.

For `COc1ccc([C@@H]2CN(C)C[C@H]2NC(=O)c2ccc3cnc(Nc4cc(C)nn4C)cc3c2)cc1` [II-64, 3-((1,3-dimethyl-1H-pyrazol-5-yl)amino)-N-((3S,4R)-4-(4-methoxyphenyl)-1-methylpyrrolidin-3-yl)isoquinoline-6-carboxamide], the IC50 in test [1] (setting [3]) turned out to be 2.68 nM; in test [2], 5.47 nM.

Broadly, the IC50 is the point on the concentration scale where inhibition reaches its midpoint.

Values taken from patent US9388171B2, “Serine/threonine kinase inhibitors” (Array BioPharma Inc., priority 2012, dated 2016).
